Experiments:
Format in all cases: in vivo
[1] = test system: Amaranthus retoflexus (AMARE); assay: Pre-emergence herbicidal test; details: 1000 g/ha, evaluated after 13 days
[2] = test system: Setaria faberi (SETFA); assay: Pre-emergence herbicidal test; details: 1000 g/ha, evaluated after 13 days
[3] = test system: Echinochloa crus-galli (ECHCG); assay: Pre-emergence herbicidal test; details: 1000 g/ha, evaluated after 13 days
[4] = test system: Ipomoea hederacea (IPOHE); assay: Pre-emergence herbicidal test; details: 1000 g/ha, evaluated after 13 days
[5] = test system: Abutilon theophrasti (ABUTH); assay: Pre-emergence herbicidal test; details: 1000 g/ha, evaluated after 13 days
[6] = test system: Zea mays (ZEAMX); assay: Pre-emergence herbicidal test; details: 1000 g/ha, evaluated after 13 days
[7] = test system: Abutilon theophrasti (ABUTH); assay: Post-emergence herbicidal test; details: 1000 g/ha unless otherwise stated, evaluated after 13 days
Experimental: (§1) Seeds of a variety of test species are sown in standard soil in pots (Amaranthus retoflexus (AMARE), Solanum nigrum (SOLNI), Setaria faberi (SETFA), Lolium perenne (LOLPE), Echinochloa crus-galli (ECHCG), Ipomoea hederacea (IPOHE), Abutilon theophrasti (ABUTH), Zea mays (ZEAMX)). After 8 days cultivation under controlled conditions in a glasshouse (at 24° C./16° C., day/night; 14 hours light; 65% humidity), the plants are sprayed with an aqueous spray solution derived from the formulation of the technical active ingredient in acetone/water (50:50) solution containing 0.5% Tween 20 (polyoxyethelyene sorbitan monolaurate, CAS RN 9005-64-5). Compounds are applied at 1000 g/ha unless otherwise stated. The test plants are then grown in a glasshouse under controlled conditions in a glasshouse (at 24° C./16° C., day/night; 14 hours light; 65% humidity) and watered twice daily. After 13 days the test is evaluated for the percentage damage caused to the plant. The biological activities are shown in the following table on a five-point scale (5=81-100%; 4=61-80%; 3=41-60%; 2=21-40%; 1=10-20%; 0=0%;−=not tested).

[8] = test system: Amaranthus retoflexus (AMARE); assay: Post-emergence herbicidal test; details: 1000 g/ha unless otherwise stated, evaluated after 13 days
Experimental: as §1

[9] = test system: Echinochloa crus-galli (ECHCG); assay: Post-emergence herbicidal test; details: 1000 g/ha unless otherwise stated, evaluated after 13 days
Experimental: as §1

[10] = test system: Ipomoea hederacea (IPOHE); assay: Post-emergence herbicidal test; details: 1000 g/ha unless otherwise stated, evaluated after 13 days
Experimental: as §1

[11] = test system: Setaria faberi (SETFA); assay: Post-emergence herbicidal test; details: 1000 g/ha unless otherwise stated, evaluated after 13 days
Experimental: as §1

[12] = test system: Zea mays (ZEAMX); assay: Post-emergence herbicidal test; details: 1000 g/ha unless otherwise stated, evaluated after 13 days
Experimental: as §1

Row | SMILES | percentage damage caused to the plant, five-point scale, AMARE [1] | percentage damage caused to the plant, five-point scale, SETFA [2] | percentage damage caused to the plant, five-point scale, ECHCG [3] | percentage damage caused to the plant, five-point scale, IPOHE [4] | percentage damage caused to the plant, five-point scale, ABUTH [5] | percentage damage caused to the plant, five-point scale, ZEAMX [6] | percentage damage caused to the plant, ABUTH (five-point scale) [7] | percentage damage caused to the plant, AMARE (five-point scale) [8] | percentage damage caused to the plant, ECHCG (five-point scale) [9] | percentage damage caused to the plant, IPOHE (five-point scale) [10] | percentage damage caused to the plant, SETFA (five-point scale) [11] | percentage damage caused to the plant, ZEAMX (five-point scale) [12]
1 | CS(=O)(=O)c1c(Br)ccc2c1c(=O)c(C(=O)O)nn2-c1ccc(OC(F)(F)F)cc1 [Compound P12, 6-bromo-5-methylsulfonyl-4-oxo-1-[4-(trifluoromethoxy)phenyl]cinnoline-3-carboxylic acid] | 0 (0=0%) | 4 (4=61-80%) | 1 (1=10-20%) | 0 (0=0%) | 1 (1=10-20%) | 0 (0=0%) | 1 (1=10-20%) | 1 (1=10-20%) | 3 (3=41-60%) | 0 (0=0%) | 3 (3=41-60%) | 1 (1=10-20%)
2 | CS(=O)(=O)c1cc(Br)cc2c1c(=O)c(C(=O)O)nn2-c1ccc(OC(F)(F)F)cc1 [Compound P13, 7-bromo-5-methylsulfonyl-4-oxo-1-[4-(trifluoromethoxy)phenyl]cinnoline-3-carboxylic acid] | 0 (0=0%) | 0 (0=0%) | 0 (0=0%) | 0 (0=0%) | 1 (1=10-20%) | 0 (0=0%) | 0 (0=0%) | 1 (1=10-20%) | 1 (1=10-20%) | 0 (0=0%) | 1 (1=10-20%) | 1 (1=10-20%)
3 | CC(C)Cc1cc(S(C)(=O)=O)c2c(=O)c(C(=O)O)nn(-c3ccc(OC(F)(F)F)cc3)c2c1 [Compound P14, 7-isobutyl-5-methylsulfonyl-4-oxo-1-[4-(trifluoromethoxy)phenyl]cinnoline-3-carboxylic acid] | 1 (1=10-20%) | 1 (1=10-20%) | 1 (1=10-20%) | 0 (0=0%) | 1 (1=10-20%) | 1 (1=10-20%) | 1 (1=10-20%) | 1 (1=10-20%) | 0 (0=0%) | 0 (0=0%) | 0 (0=0%) | 0 (0=0%)
4 | CC(C)Cc1ccc2c(c1S(C)(=O)=O)c(=O)c(C(=O)O)nn2-c1ccc(OC(F)(F)F)cc1 [Compound P15, 6-isobutyl-5-methylsulfonyl-4-oxo-1-[4-(trifluoromethoxy)phenyl]cinnoline-3-carboxylic acid] | 1 (1=10-20%) | 1 (1=10-20%) | 1 (1=10-20%) | 0 (0=0%) | 1 (1=10-20%) | 0 (0=0%) | 1 (1=10-20%) | 1 (1=10-20%) | 1 (1=10-20%) | 0 (0=0%) | 1 (1=10-20%) | 1 (1=10-20%)
5 | COc1ccc2c(c1S(C)(=O)=O)c(=O)c(C(=O)O)nn2-c1ccc(OC(F)(F)F)cc1 [Compound P18, 6-methoxy-5-methylsulfonyl-4-oxo-1-[4-(trifluoromethoxy)phenyl]cinnoline-3-carboxylic acid] | 0 (0=0%) | 0 (0=0%) | 1 (1=10-20%) | 0 (0=0%) | 0 (0=0%) | 1 (1=10-20%) | 1 (1=10-20%) | 1 (1=10-20%) | 1 (1=10-20%) | 0 (0=0%) | 2 (2=21-40%) | 1 (1=10-20%)
6 | COc1cc(S(C)(=O)=O)c2c(=O)c(C(=O)O)nn(-c3ccc(OC(F)(F)F)cc3)c2c1 [Compound P19, 7-methoxy-5-methylsulfonyl-4-oxo-1-[4-(trifluoromethoxy)phenyl]cinnoline-3-carboxylic acid] | 1 (1=10-20%) | 5 (5=81-100%) | 2 (2=21-40%) | 0 (0=0%) | 0 (0=0%) | 0 (0=0%) | 1 (1=10-20%) | 1 (1=10-20%) | 2 (2=21-40%) | 1 (1=10-20%) | 3 (3=41-60%) | 1 (1=10-20%)
7 | CS(=O)(=O)c1c(F)ccc2c1c(=O)c(C(=O)O)nn2-c1ccc(OC(F)(F)F)cc1 [Compound P20, 6-fluoro-5-methylsulfonyl-4-oxo-1-[4-(trifluoromethoxy)phenyl]cinnoline-3-carboxylic acid] | 0 (0=0%) | 0 (0=0%) | 0 (0=0%) | 0 (0=0%) | 0 (0=0%) | 0 (0=0%) | 0 (0=0%) | 0 (0=0%) | 0 (0=0%) | 0 (0=0%) | 0 (0=0%) | 0 (0=0%)

Source: patent US20230250066A1, “HERBICIDAL CINNOLINE DERIVATIVES” (SYNGENTA CROP PROTECTION AG, priority 2020, published 2023)
